This data set in a line: RP, Agilent ZORBAX Eclipse XDB-C8, 150 × 4.6 mm, 3.5 µm, 25 °C, 0.6 mL/min, estimated dead time 2.6 min; A: water + 0.1% formic acid; B: acetonitrile + 0.1% formic acid; gradient (min/%B) 0/10 5/10 30/100. Particulars: stereoisomer not certain.

Each structure is given as a SMILES string.

Turning to `Cc1cccc(Nc2ccccc2C(=O)O)c1C`, the LC retention time was 24.6 min. The same measure for `CC1(C)SC2C(NC(=O)C(N)c3ccccc3)C(=O)N2C1C(=O)O` (stereo unspecified): 10.4 min. For `COc1ccc2c3c1OC1C(=O)CCC4(O)C(C2)N(C)CCC314` (stereo unspecified), the LC retention time was 9.4 min. Take `CCC1OC(=O)C(C)C(OC2CC(C)(OC)C(O)C(C)O2)C(C)C(OC2OC(C)CC(N(C)C)C2O)C(C)(O)CC(C)C(=O)C(C)C(O)C1(C)O` (stereo unspecified): the LC retention time was 14.6 min.

As for `CC(=O)Nc1ccc(O)cc1`, the LC retention time was 6.5 min. Consider `CCC1OC(=O)C(C)C(OC2CC(C)(OC)C(O)C(C)O2)C(C)C(OC2OC(C)CC(N(C)C)C2O)C(C)(OC)CC(C)C(=O)C(C)C(O)C1(C)O` (stereo unspecified), for which the LC retention time is 16 min.

Turning to `CC(C)(C)NCC(O)c1ccc(O)c(CO)c1` (stereo unspecified), the LC retention time was 4 min. On to `Cc1cc(NS(=O)(=O)c2ccc(N)cc2)no1`, for which the LC retention time is 15.3 min. The same measure for `NCC1(CC(=O)O)CCCCC1`: 6.5 min; for `Cc1ccc(C)c(OCCCC(C)(C)C(=O)O)c1`: 25 min. On to `CC1=CC(O)CC(=O)Cc2nc(co2)C(=O)N2CCC=C2C(=O)OC(C(C)C)C(C)C=CC(=O)NCC=C1.CCC1NC(=O)C(NC(=O)c2ncccc2O)C(C)OC(=O)C(c2ccccc2)NC(=O)C2CC(=O)CCN2C(=O)C(Cc2ccccc2)N(C)C(=O)C2CCCN2C1=O` (stereo unspecified), for which the LC retention time was 18.4 min.

Turning to `CC1OC(OC2C(O)CC(OC3C(O)CC(OC4CCC5(C)C(CCC6C5CC(O)C5(C)C(C7=CC(=O)OC7)CCC65O)C4)OC3C)OC2C)CC(O)C1O` (stereo unspecified), the LC retention time was 15.2 min. To `CC1(C)SC2C(NC(=O)Cc3ccccc3)C(=O)N2C1C(=O)O` (stereo unspecified) belongs 16.9 min; to `NC(=O)N1c2ccccc2CCc2ccccc21`, 17.1 min. With `Nc1ccc(S(=O)(=O)Nc2ncccn2)cc1`, the LC retention time is 9.9 min.

Take `NC(=O)N1c2ccccc2C=Cc2ccccc21`: the LC retention time is 17.2 min. In the case of `Cc1onc(-c2ccccc2)c1C(=O)NC1C(=O)N2C1SC(C)(C)C2C(=O)O` (stereo unspecified), the LC retention time was 19.2 min.

Regarding `Cc1ccnc(NS(=O)(=O)c2ccc(N)cc2)n1`, the LC retention time was 11.5 min.

For `O=C1NC(=O)C(c2ccccc2)(c2ccccc2)N1`, the LC retention time is 17.1 min.

For the molecule `CC(=O)CC(c1ccccc1)c1c(O)c2ccccc2oc1=O` (stereo unspecified), the LC retention time was 21.4 min. For `CN1C(=O)CCC1c1cccnc1` (stereo unspecified), the LC retention time is 3.2 min.

Regarding `CN=C(NC#N)NCCSCc1nc[nH]c1C`, the LC retention time was 4.3 min.

Turning to `O=C(c1ccccc1)c1ccc2n1CCC2C(=O)O` (stereo unspecified), the LC retention time was 19.7 min.

For `CN(C)CC(c1ccc(O)cc1)C1(O)CCCCC1` (stereo unspecified), the LC retention time was 11.3 min. For `CN1CCC23CCCCC2C1Cc1ccc(O)cc13` (stereo unspecified), the LC retention time was 12.1 min. The same measure for `NC(=O)N1c2ccccc2CC(O)c2ccccc21` (stereo unspecified): 13.9 min. The same measure for `CC(C)NCC(O)COc1cccc2ccccc12` (stereo unspecified): 14.4 min; for `NC(=O)N1c2ccccc2C(O)C(O)c2ccccc21` (stereo unspecified): 12.9 min; for `Nc1ccc(S(=O)(=O)Nc2nccs2)cc1`: 10.6 min. To `CCC(=O)C(CC(C)N(C)C)(c1ccccc1)c1ccccc1` (stereo unspecified) belongs 16.6 min. With `CCn1cc(C(=O)O)c(=O)c2cc3c(cc21)OCO3`, the LC retention time was 15.4 min. `CC12CCC(O)CC1CCC1C2CC(O)C2(C)C(C3=CC(=O)OC3)CCC12O` (stereo unspecified): the LC retention time was 13.4 min. `COc1ccc(C2Sc3ccccc3N(CCN(C)C)C(=O)C2OC(C)=O)cc1` (stereo unspecified): the LC retention time is 15.2 min.

Regarding `CNC(=C[N+](=O)[O-])NCCSCc1ccc(CN(C)C)o1`, the LC retention time is 4.6 min. To `CC1(C)SC2C(NC(=O)COc3ccccc3)C(=O)N2C1C(=O)O` (stereo unspecified) belongs 17.9 min.

Regarding `Cn1c(=O)c2c(ncn2C)n(C)c1=O`, the LC retention time was 9.8 min. To `COc1ccc2cc(C(C)C(=O)O)ccc2c1` (stereo unspecified) belongs 20.9 min; to `COc1ccc2c(c1)C13CCCCC1C(C2)N(C)CC3` (stereo unspecified), 14.6 min; to `Cc1nnc(NS(=O)(=O)c2ccc(N)cc2)s1`, 12.7 min. To `CCCC(C)(COC(N)=O)COC(N)=O` belongs 14.7 min; to `CC(C(=O)O)c1cccc(C(=O)c2ccccc2)c1` (stereo unspecified), 19 min; to `CON=C(C(=O)NC1C(=O)N2C(C(=O)O)=C(COC(C)=O)CSC12)c1csc(N)n1` (stereo unspecified), 12.9 min.

For the molecule `CC(C)NCC(O)COc1ccc(CC(=O)O)cc1` (stereo unspecified), the LC retention time was 9.4 min.

Turning to `COc1cc(NS(=O)(=O)c2ccc(N)cc2)nc(OC)n1`, the LC retention time is 16.5 min. The same measure for `COC(=O)c1c(C)nc(C)c(C(=O)OC)c1-c1ccccc1[N+](=O)[O-]`: 20.5 min; for `COCCc1ccc(OCC(O)CNC(C)C)cc1` (stereo unspecified): 12.1 min.

On to `COc1ccc(C(CN(C)C)C2(O)CCCCC2)cc1` (stereo unspecified), for which the LC retention time is 13.5 min. To `CCC1OC(=O)CC(O)C(C)C(OC2OC(C)C(OC3CC(C)(O)C(O)C(C)O3)C(N(C)C)C2O)C(CC=O)CC(C)C(=O)C=CC(C)=CC1COC1OC(C)C(O)C(OC)C1OC` (stereo unspecified) belongs 15 min. As to `Cn1c(=O)[nH]c2ncn(C)c2c1=O`, the LC retention time is 6.3 min. The same measure for `COc1ccccc1OCC(O)CO` (stereo unspecified): 12.7 min; for `COc1ccc2c3c1OC1C(=O)CCC4C(C2)N(C)CCC314` (stereo unspecified): 10.1 min. To `COc1cc(Cc2cnc(N)nc2N)cc(OC)c1OC` belongs 10.4 min; to `CC(C)NCC(O)COc1ccc(CC(N)=O)cc1` (stereo unspecified), 4.2 min; to `CN(C)CCOC(c1ccccc1)c1ccccc1`, 15.1 min. The same measure for `CC(C)Cc1ccc(C(C)C(=O)O)cc1` (stereo unspecified): 23.6 min; for `c1ccc2[nH]c(-c3cscn3)nc2c1`: 8.8 min. Take `CCC1(c2ccccc2)C(=O)NCNC1=O`: the LC retention time is 12.7 min. As for `Nc1ccc(S(N)(=O)=O)cc1`, the LC retention time is 4.6 min. To `CCC1OC(=O)C(C)C(OC2CC(C)(OC)C(O)C(C)O2)C(C)C(OC2OC(C)CC(N(C)C)C2O)C(C)(O)CC(C)CN(C)C(C)C(O)C1(C)O` (stereo unspecified) belongs 12.2 min; to `Cc1cc(C)nc(NS(=O)(=O)c2ccc(N)cc2)n1`, 12.4 min; to `NC(=O)N1c2ccccc2CC(=O)c2ccccc21`, 15.8 min. To `CCC(C)(C)C(=O)OC1CC(C)C=C2C=CC(C)C(CCC3CC(O)CC(=O)O3)C21` (stereo unspecified) belongs 26.9 min; to `COc1ccc2c3c1OC1C(O)C=CC4C(C2)N(C)CCC341` (stereo unspecified), 7 min; to `COc1cccc(C2(O)CCCCC2CN(C)C)c1` (stereo unspecified), 11.1 min. The same measure for `CCC1OC(=O)C(C)C(OC2CC(C)(OC)C(O)C(C)O2)C(C)C(OC2OC(C)CC(N(C)C)C2O)C(C)(O)CC(C)C(=NOCOCCOC)C(C)C(O)C1(C)O` (stereo unspecified): 16.2 min; for `CCCC1CC(C(=O)NC(C(C)O)C2OC(SC)C(O)C(O)C2O)N(C)C1` (stereo unspecified): 8.7 min.

(Values after the RepoRT retention time repository (doi:10.1016/j.chroma.2012.03.059).)
